This is an account of results in patent publication US9138495B2, “Conjugates and their uses in molecular imaging” (King's College London, priority 2010, dated 2015).

The target of one series is T1, human apo-transferrin (Homo sapiens, UniProt P02787).
T1 construct: purchased Sigma Aldrich T5391-10MG
Nature of the series: Tracer stability in apo-transferrin using 30 kDa MWCO filters. In kind it is in vitro ADME. The following applies: tracer radiolabelled at 100 μM ligand, 37° C. Here is the method:
50 mM TRIS-HCl buffer (pH 7.5) was prepared by dilution of a 1 M stock solution. Sodium bicarbonate was added to a concentration of 25 mM. A 2.5 mg/ml (32 μM) solution of apo-transferrin was prepared in this buffer. Solutions of all tracers were radiolabelled at a concentration of 100 μM. A 10 μM CP256 solution was also prepared. See table 9 for radiolabelling conditions. A 10 μl aliquot of each radiolabelled tracer was added to 30 μl of an appropriate buffer to neutralise the pH to between 7 and 7.5. This buffer was 2 M TRIS-HCl (pH 7.5) in the case of those tracers labelled in the acetate buffer. For preparations of ^67Ga-CP256 and ^67Ga-Citrate the buffer was PBS. Details can be seen in Table 9. Apo-transferrin solution (200 μl) in a plastic microcentrifuge tube was incubated at 37° C. in a metal heating block. To this was added 20 μl of each pH-neutralised tracer. 20 μl of each tracer was also incubated in a reference buffer (containing no apo-transferrin) of 50 mM TRIS-HCl containing 25 mM sodium bicarbonate. […] The filter section of the tube was removed and counted separately from the tube in a gamma counter. Percentage binding of the radioactivity to the MWCO filter was calculated using the following equation: Counts from filter section/Counts from filter section+counts from tube section×100 The analysis was done in triplicate after 4 hours for the apo-transferrin incubations. […]

The next series has as its target T2, sialoadhesin (Mus musculus, UniProt Q62230).
T2 construct: Sialoadhesin is found on the surface of macrophages; endogenous in cells; host or cells: macrophages (spleen, liver) of living wild-type C57Bl/6 mice
Format: in vivo. The following applies: group 2: ^67Ga citrate 5 min after unconjugated SER4; wild type mice, 3 h. The protocol:
CP256-SER4 was labelled with ^67Ga to give ^67Ga-CP256-SER4. Groups of wild type mice were injected with either directly labelled Ga-CP256-SER4 (group 1), or SER4 (unconjugated) followed 5 min later by ^67Ga citrate (group 2) or CP256-SER4 followed by ^67Ga citrate.
The same experiments were also performed using sialoadhesin knockout mice. All animals were killed after 3 h and biodistribution of radioactivity determined.
^67Gallium radiolabelling was performed by addition of 45 μL ^67Ga citrate (0.6-0.75 MBq) to 90 μL (90 μg) CP256-SER4. Radiolabelling was allowed to proceed for 10 min before dilution to 350 μL with phosphate buffered saline. Injections containing 25 μg of labelled antibody were drawn up. Analysis of the radiolabelled antibody was performed by size exclusion HPLC using 0.1 M phosphate buffer containing 2 mM EDTA as the mobile phase to ensure good radiolabelling had been achieved prior to injection into animals.
Groups of wild type mice (C57Bl/6, male 8-10 weeks, n=2 to 3 per group) were injected with either directly labelled ^67Ga-CP256-SER4 (group 1), or SER4 (unconjugated) followed 5 min later by ^67Ga citrate (group 2) or CP256-SER4 followed by ^67Ga citrate. […] All animals were killed after 3 h and biodistribution of radioactivity determined by explanting tissues and weighing and counting.

In a further series the target is T3, serum transferrin (Homo sapiens, UniProt P02787).
T3 construct: from tissue; host or cells: human blood serum
Nature of the series: Labelling of CP256 with ^68Ga in serum (PD10, ethanol precipitation, ITLC). Format: in vitro ADME. The protocol: Two different radiolabelling techniques were used. In method 1, 100 μl of chelator (CP-256, 2.35 mM, 1.17 mM, 589 μM, 117 μM, 23 μM and 11.7 μM; pH 7-7.5 in PBS/bicarbonate buffer) was mixed with 300 μl of human serum. After 10-15 minutes 20 μl of 68Ga eluate was added and the solution incubated at 37° C. in a plastic tube. In the second method, 20 μl of ^68Ga solution was added to the 300 μl of human blood serum. After 15-20 minutes 100 μl of chelator (Cp-256) was added. At each time point 50 μl of the incubation solution was applied to the top of the PD-10 column and eluted the column with PBS collecting 0.5 ml fractions. Fractions were counted in a gamma counter (Perkin Elmer wizard 31480 automatic gamma counter, 10 seconds per sample). The incubated solution were also analysed by ethanol precipitation, counting the pellet and supernatant after centrifugation to determine protein bound ^68Ga, and the centrifuged supernatants were analysed by ITLC-SG with 0.1 M sodium citrate as mobile phase. In these conditions “free” ^68Ga migrates with the solvent front (Rf=1) and ^68Ga-CP256 remains at the origin (Rf=0).

T3 sequence (P02787 20-698): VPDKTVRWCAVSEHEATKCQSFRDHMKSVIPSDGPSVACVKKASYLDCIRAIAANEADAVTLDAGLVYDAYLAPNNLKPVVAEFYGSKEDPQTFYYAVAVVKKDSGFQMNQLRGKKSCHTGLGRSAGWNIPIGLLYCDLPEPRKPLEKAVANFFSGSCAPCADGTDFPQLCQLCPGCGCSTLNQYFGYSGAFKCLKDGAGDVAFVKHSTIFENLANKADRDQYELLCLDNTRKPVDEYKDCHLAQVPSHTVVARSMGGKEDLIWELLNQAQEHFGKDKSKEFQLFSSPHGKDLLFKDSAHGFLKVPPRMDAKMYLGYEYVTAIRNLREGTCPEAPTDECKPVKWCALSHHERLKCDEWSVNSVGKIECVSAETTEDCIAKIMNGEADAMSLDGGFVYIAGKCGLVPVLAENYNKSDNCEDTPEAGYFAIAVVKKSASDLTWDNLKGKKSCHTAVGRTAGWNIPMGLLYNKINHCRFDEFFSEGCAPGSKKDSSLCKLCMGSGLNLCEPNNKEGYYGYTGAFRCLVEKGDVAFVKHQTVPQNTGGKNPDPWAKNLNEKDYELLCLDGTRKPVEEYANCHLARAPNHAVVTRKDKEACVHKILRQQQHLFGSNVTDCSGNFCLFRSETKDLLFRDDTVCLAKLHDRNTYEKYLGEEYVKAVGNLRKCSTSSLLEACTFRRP
T1 sequence (P02787 20-698): as above
T2 sequence (Q62230 20-1695): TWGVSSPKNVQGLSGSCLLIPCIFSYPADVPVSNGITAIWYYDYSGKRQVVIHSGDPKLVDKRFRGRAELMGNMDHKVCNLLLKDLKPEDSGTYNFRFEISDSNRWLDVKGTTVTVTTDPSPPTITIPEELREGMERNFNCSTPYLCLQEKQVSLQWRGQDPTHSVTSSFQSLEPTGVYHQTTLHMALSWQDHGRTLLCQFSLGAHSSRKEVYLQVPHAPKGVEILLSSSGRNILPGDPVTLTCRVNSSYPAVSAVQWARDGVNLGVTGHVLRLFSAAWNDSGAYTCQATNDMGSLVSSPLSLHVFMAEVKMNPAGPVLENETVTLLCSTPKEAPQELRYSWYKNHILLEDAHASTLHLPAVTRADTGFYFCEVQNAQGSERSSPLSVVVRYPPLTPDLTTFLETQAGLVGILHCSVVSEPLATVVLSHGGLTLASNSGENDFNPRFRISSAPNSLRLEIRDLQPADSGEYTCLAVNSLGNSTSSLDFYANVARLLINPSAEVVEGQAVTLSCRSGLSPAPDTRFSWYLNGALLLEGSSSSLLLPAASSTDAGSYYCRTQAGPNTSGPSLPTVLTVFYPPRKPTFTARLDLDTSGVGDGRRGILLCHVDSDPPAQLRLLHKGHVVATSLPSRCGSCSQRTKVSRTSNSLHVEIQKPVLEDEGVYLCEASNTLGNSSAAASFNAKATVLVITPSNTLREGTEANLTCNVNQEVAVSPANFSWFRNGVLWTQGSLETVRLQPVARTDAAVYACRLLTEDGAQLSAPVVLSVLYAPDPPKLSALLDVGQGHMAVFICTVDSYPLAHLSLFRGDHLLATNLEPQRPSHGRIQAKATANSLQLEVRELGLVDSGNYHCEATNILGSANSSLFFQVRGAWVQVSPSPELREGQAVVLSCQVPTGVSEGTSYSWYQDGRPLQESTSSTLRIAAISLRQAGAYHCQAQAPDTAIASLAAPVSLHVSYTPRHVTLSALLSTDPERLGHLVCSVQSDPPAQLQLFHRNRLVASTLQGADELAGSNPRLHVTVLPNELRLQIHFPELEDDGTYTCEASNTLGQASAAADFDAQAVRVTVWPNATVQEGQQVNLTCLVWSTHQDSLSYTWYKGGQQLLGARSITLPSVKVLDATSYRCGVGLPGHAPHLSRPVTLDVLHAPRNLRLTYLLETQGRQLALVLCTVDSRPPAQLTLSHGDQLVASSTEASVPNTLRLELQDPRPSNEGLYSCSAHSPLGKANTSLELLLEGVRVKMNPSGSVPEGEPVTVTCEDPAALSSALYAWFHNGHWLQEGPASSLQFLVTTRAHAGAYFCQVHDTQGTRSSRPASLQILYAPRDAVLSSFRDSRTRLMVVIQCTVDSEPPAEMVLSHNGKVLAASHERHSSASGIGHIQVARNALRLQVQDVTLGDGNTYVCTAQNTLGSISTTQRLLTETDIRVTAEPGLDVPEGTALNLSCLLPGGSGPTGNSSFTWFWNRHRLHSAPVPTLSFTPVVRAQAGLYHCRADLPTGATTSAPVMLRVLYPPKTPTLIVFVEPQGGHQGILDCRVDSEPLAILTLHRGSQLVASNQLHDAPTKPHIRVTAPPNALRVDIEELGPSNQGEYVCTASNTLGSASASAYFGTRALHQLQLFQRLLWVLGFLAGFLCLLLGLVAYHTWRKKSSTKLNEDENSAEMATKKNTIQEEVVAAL

For `O=C([O-])CC(O)(CC(=O)[O-])C(=O)[O-].[67Ga+3]` [^67Ga-CITRATE], on human apo-transferrin (50 mM TRIS-HCl, 25 mM bicarbonate, no apo-transferrin), the “% radioactivity bound to MWCO filter, in reference buffer” value was determined as 1.7 ± 0.5%. At human apo-transferrin (apo-transferrin, 4 hours), the “% radioactivity bound to MWCO filter, apo-transferrin incubation, after 4 hours” value is given as 73.0 ± 4.1%. For the same compound, the “activity in circulating blood” value on sialoadhesin was 7 % ID/g.

With `CC(=O)NC(CCC(=O)NCc1c(O)c(=O)cc(C)n1C)(CCC(=O)NCc1c(O)c(=O)cc(C)n1C)CCC(=O)NCc1c(O)c(=O)cc(C)n1C.Cl.Cl.Cl` [CP256, 4-Acetylamino-4-{2-[(3-hydroxy-1,6-dimethyl-4-oxo-1,4-dihydro-pyridin-2-ylmethyl)-carbamoyl]-ethyl}-heptanedioic acid bis-[(3-hydroxy-1,6-dimethyl-4-oxo-1,4-dihydro-pyridin-2-ylmethyl)-amide]tris hydrochloride salt], the “CP256 sample concentration giving a chromatogram similar to that of ^68Ga-CP256 in serum” value on serum transferrin (^68Ga chloride added to mixture of CP256 and human serum) was no less than 23 µM. Also, at serum transferrin (^68Ga chloride added to mixture of CP256 and human serum, 37° C.), the “chelation of ^68Ga in competition with serum transferrin” value is “competes effectively with serum transferrin”. For the same compound, the “extraction of ^68Ga from ^68Ga-transferrin complex” value on serum transferrin (^68Ga equilibrated first with serum, then CP256 added) was “able to extract ^68Ga from ^68Ga-transferrin complex”. In addition, at serum transferrin (serum containing CP256), the “free ^68Ga (ITLC of supernatants)” value is recorded as “no detectable free ^68Ga” and the “protein bound ^68Ga (ethanol precipitation)” value was “no measurable protein binding”.
